In patent US20140045873A1, “NOVEL MICROBIOCIDES” (SYNGENTA PARTICIPATIONS AG, priority 2010, published 2014):
Where two headings read alike, the source gives them in different places.

Legend:
[1] = tested on: Botryotinia fuckeliana (Botrytis cinerea); assay: Botryotinia fuckeliana (Botrytis cinerea) / liquid culture (gray mould); assay type: cell-based; conditions: Vogels broth, 24° C., 3-4 days after application, read-out: control of Botryotinia fuckeliana (inhibition of growth, photometric)
Text: Botryotinia Fuckeliana (Botrytis cinerea)/Liquid Culture (Gray Mould): Conidia of the fungus from cryogenic storage were directly mixed into nutrient broth (Vogels broth). […].45

[2] = tested on: Glomerella lagenarium (Colletotrichum lagenarium); assay: Glomerella lagenarium (Colletotrichum lagenarium) / liquid culture (anthracnose); assay type: cell-based; conditions: Colletotrichum orbiculare, read-out: control of Glomerella lagenarium (inhibition of growth, photometric)
[3] = tested on: Mycosphaerella arachidis (Cercospora arachidicola); assay: Mycosphaerella arachidis (Cercospora arachidicola) / liquid culture (early leaf spot); assay type: cell-based; conditions: read-out: control of Mycosphaerella arachidis (inhibition of growth, photometric)
[4] = tested on: Monographella nivalis (Microdochium nivale); assay: Monographella nivalis (Microdochium nivale) / liquid culture (foot rot cereals); assay type: cell-based; conditions: PDB, 24° C., 4-5 days after application, read-out: control of Monographella nivalis (inhibition of growth, photometric)
[5] = tested on: Pyrenophora teres; conditions: in Hordeum vulgare, foliar, read-out: control of Pyrenophora teres (disease control compared to untreated)
[6] = tested on: Puccinia recondita f. sp. tritici; conditions: in Triticum aestivum, foliar, read-out: control of Puccinia recondita f. sp. tritici (percent disease control compared to untreated)
[7] = tested on: Puccinia recondita f. sp. tritici; conditions: in Triticum aestivum, foliar, read-out: control of Puccinia recondita f. sp. tritici (percent disease control compared to untreated); remark: listed apart in the source
[8] = tested on: Thanatephorus cucumeris (Rhizoctonia solani); conditions: read-out: control of Thanatephorus cucumeris (inhibition of growth, photometric)
[9] = tested on: Phaeosphaeria nodorum (Septoria nodorum); conditions: Parastagonospora nodorum, in Triticum aestivum, foliar, read-out: control of Phaeosphaeria nodorum (percent disease control compared to untreated)
[10] = tested on: Mycosphaerella graminicola (Septoria tritici); assay: Mycosphaerella graminicola (Septoria tritici) / liquid culture (Septoria blotch); assay type: cell-based; conditions: Zymoseptoria tritici, read-out: control of Mycosphaerella graminicola (inhibition of growth, photometric)
[11] = tested on: Gaeumannomyces graminis; assay: Gaeumannomyces graminis / liquid culture (take-all of cereals); assay type: cell-based; conditions: read-out: control of Gaeumannomyces graminis (inhibition of growth, photometric)
[12] = 200 ppm, liquid culture, PDB, 24° C., 3-4 days after application
[13] = 200 ppm, liquid culture, PDB, 24° C., 4-5 days after application

C/C(=N\OCCCc1cccc(-c2ccccn2)n1)c1cccc(C)n1 [P.01]
≥ 80%: inhibition at 200 ppm [1] | inhibition at 200 ppm [2, 12] | inhibition at 200 ppm [3, 13] | inhibition at 200 ppm [4] | pest or weed control at 200 ppm [5] | pest or weed control at 200 ppm [6] | pest or weed control at 200 ppm [7] | inhibition at 200 ppm [8] | pest or weed control at 200 ppm [9]

C/C(=N\OCCCc1cccc(-c2nccc(C)n2)n1)c1cccc(C)n1 [P.02]
≥ 80%: inhibition at 200 ppm [2] | inhibition at 200 ppm [3] | inhibition at 200 ppm [10] | inhibition at 200 ppm [11] | pest or weed control at 200 ppm [5] | pest or weed control at 200 ppm [6] | pest or weed control at 200 ppm [7] | inhibition at 200 ppm [8] | pest or weed control at 200 ppm [9]

C/C(=N\OCCCc1cccc(-c2ccnc(C)n2)n1)c1cccc(C)n1 [P.03]
≥ 80%: inhibition at 200 ppm [1] | inhibition at 200 ppm [3, 13] | inhibition at 200 ppm [10, 13] | inhibition at 200 ppm [11, 13] | pest or weed control at 200 ppm [5] | pest or weed control at 200 ppm [6] | inhibition at 200 ppm [8] | pest or weed control at 200 ppm [9]

C/C(=N\OCCCc1cccc(-c2ncccn2)n1)c1cccc(C)n1 [P.04]
≥ 80%: inhibition at 200 ppm [1] | inhibition at 200 ppm [3, 13] | pest or weed control at 200 ppm [6] | pest or weed control at 200 ppm [7] | inhibition at 200 ppm [8] | pest or weed control at 200 ppm [9]

C/C(=N\OCCCc1cccc(-c2ccncn2)n1)c1cccc(C)n1 [P.06]
≥ 80%: inhibition at 200 ppm [10, 13] | inhibition at 200 ppm [11, 13]

C/C(=N\OCCCc1cccc(-c2ccnc(-c3ccccc3)n2)n1)c1cccc(C)n1 [P.08]
≥ 80%: inhibition at 200 ppm [1] | inhibition at 200 ppm [3, 13] | inhibition at 200 ppm [10, 13] | inhibition at 200 ppm [11, 13]

CSc1nccc(-c2cccc(CCCO/N=C(\C)c3cccc(C)n3)n2)n1 [P.09]
≥ 80%: inhibition at 200 ppm [1] | inhibition at 200 ppm [3, 13] | inhibition at 200 ppm [10, 13] | inhibition at 200 ppm [11, 13] | pest or weed control at 200 ppm [5] | pest or weed control at 200 ppm [6] | pest or weed control at 200 ppm [9]

C/C(=N\OCCCc1cccc(-c2ccnc(Cc3ccccc3)n2)n1)c1cccc(C)n1 [P.10]
≥ 80%: inhibition at 200 ppm [1] | inhibition at 200 ppm [3, 13] | inhibition at 200 ppm [10, 13] | inhibition at 200 ppm [11, 13] | pest or weed control at 200 ppm [5]

C/C(=N\OCCCc1cccc(-c2cc(O)cc(C)n2)n1)c1cccc(C)n1 [P.14, 1-(6-methyl-pyridin-2-yl)-ethanone-O-[3-(4′-hydroxy-6′-methyl-[2,2′]bipyridinyl-6-yl)-propyl]-oxime]
≥ 80%: inhibition at 200 ppm [3, 13] | inhibition at 200 ppm [10, 13] | inhibition at 200 ppm [11, 13]

CC(=O)c1ccc(-c2cccc(CCCO/N=C(\C)c3cccc(C)n3)n2)nc1C [P.20]
≥ 80%: inhibition at 200 ppm [3, 13] | inhibition at 200 ppm [11, 13] | pest or weed control at 200 ppm [5] | pest or weed control at 200 ppm [9]

CCON=C(C)c1ccc(-c2cccc(CCCO/N=C(\C)c3cccc(C)n3)n2)nc1C [P.23]
≥ 80%: inhibition at 200 ppm [1] | inhibition at 200 ppm [2, 12] | inhibition at 200 ppm [3, 13] | inhibition at 200 ppm [10, 13] | inhibition at 200 ppm [11, 13] | pest or weed control at 200 ppm [5] | pest or weed control at 200 ppm [6] | pest or weed control at 200 ppm [7] | pest or weed control at 200 ppm [9]

CCc1cc(OC)c(C)c(-c2cccc(CCCO/N=C(\C)c3cccc(C)n3)n2)n1 [P.33]
≥ 80%: inhibition at 200 ppm [1] | inhibition at 200 ppm [3, 13] | inhibition at 200 ppm [10, 13] | pest or weed control at 200 ppm [5] | pest or weed control at 200 ppm [6] | pest or weed control at 200 ppm [7] | inhibition at 200 ppm [8] | pest or weed control at 200 ppm [9]

CCOc1cc(CC)nc(-c2cccc(CCCO/N=C(\C)c3cccc(C)n3)n2)c1C [P.34]
≥ 80%: inhibition at 200 ppm [1] | inhibition at 200 ppm [3, 13] | inhibition at 200 ppm [10, 13] | pest or weed control at 200 ppm [5] | pest or weed control at 200 ppm [6] | pest or weed control at 200 ppm [7] | inhibition at 200 ppm [8] | pest or weed control at 200 ppm [9]

CCCOc1cc(CC)nc(-c2cccc(CCCO/N=C(\C)c3cccc(C)n3)n2)c1C [P.35]
≥ 80%: inhibition at 200 ppm [1] | inhibition at 200 ppm [2, 12] | inhibition at 200 ppm [3, 13] | inhibition at 200 ppm [10, 13] | pest or weed control at 200 ppm [5] | pest or weed control at 200 ppm [6] | pest or weed control at 200 ppm [7] | inhibition at 200 ppm [8] | pest or weed control at 200 ppm [9]

CCc1cc(OC(C)C)c(C)c(-c2cccc(CCCO/N=C(\C)c3cccc(C)n3)n2)n1 [P.36]
≥ 80%: inhibition at 200 ppm [1] | inhibition at 200 ppm [2, 12] | inhibition at 200 ppm [3, 13] | inhibition at 200 ppm [10, 13] | pest or weed control at 200 ppm [5] | pest or weed control at 200 ppm [6] | pest or weed control at 200 ppm [7] | inhibition at 200 ppm [8] | pest or weed control at 200 ppm [9]

C=CCOc1cc(CC)nc(-c2cccc(CCCO/N=C(\C)c3cccc(C)n3)n2)c1C [P.37]
≥ 80%: inhibition at 200 ppm [1] | inhibition at 200 ppm [2, 12] | inhibition at 200 ppm [3, 13] | inhibition at 200 ppm [10, 13] | pest or weed control at 200 ppm [5] | pest or weed control at 200 ppm [6] | pest or weed control at 200 ppm [7] | inhibition at 200 ppm [8] | pest or weed control at 200 ppm [9]

C#CCOc1cc(CC)nc(-c2cccc(CCCO/N=C(\C)c3cccc(C)n3)n2)c1C [P.38]
≥ 80%: inhibition at 200 ppm [1] | inhibition at 200 ppm [2, 12] | inhibition at 200 ppm [3, 13] | inhibition at 200 ppm [10, 13] | pest or weed control at 200 ppm [5] | pest or weed control at 200 ppm [6] | pest or weed control at 200 ppm [7] | inhibition at 200 ppm [8] | pest or weed control at 200 ppm [9]

CCc1cc(Cl)c(C)c(-c2cccc(CCCO/N=C(\C)c3cccc(C)n3)n2)n1 [P.39]
≥ 80%: inhibition at 200 ppm [1] | inhibition at 200 ppm [2, 12] | inhibition at 200 ppm [3, 13] | inhibition at 200 ppm [10, 13] | inhibition at 200 ppm [4] | inhibition at 200 ppm [8] | pest or weed control at 200 ppm [9]

CCc1cc(Br)c(C)c(-c2cccc(CCCO/N=C(\C)c3cccc(C)n3)n2)n1 [P.41]
≥ 80%: inhibition at 200 ppm [1] | inhibition at 200 ppm [2, 12] | inhibition at 200 ppm [3, 13] | inhibition at 200 ppm [10, 13] | inhibition at 200 ppm [4] | pest or weed control at 200 ppm [9]
